What all share (assay type): cell-based
Details in all cases: TSA 3 μM, COS-7 cells

For one test, the target named is T1, PR (Homo sapiens, UniProt P06401).
T1 construct: expressed in transfected cells; host or cells: COS-7
T1 sequence (P06401 1-933): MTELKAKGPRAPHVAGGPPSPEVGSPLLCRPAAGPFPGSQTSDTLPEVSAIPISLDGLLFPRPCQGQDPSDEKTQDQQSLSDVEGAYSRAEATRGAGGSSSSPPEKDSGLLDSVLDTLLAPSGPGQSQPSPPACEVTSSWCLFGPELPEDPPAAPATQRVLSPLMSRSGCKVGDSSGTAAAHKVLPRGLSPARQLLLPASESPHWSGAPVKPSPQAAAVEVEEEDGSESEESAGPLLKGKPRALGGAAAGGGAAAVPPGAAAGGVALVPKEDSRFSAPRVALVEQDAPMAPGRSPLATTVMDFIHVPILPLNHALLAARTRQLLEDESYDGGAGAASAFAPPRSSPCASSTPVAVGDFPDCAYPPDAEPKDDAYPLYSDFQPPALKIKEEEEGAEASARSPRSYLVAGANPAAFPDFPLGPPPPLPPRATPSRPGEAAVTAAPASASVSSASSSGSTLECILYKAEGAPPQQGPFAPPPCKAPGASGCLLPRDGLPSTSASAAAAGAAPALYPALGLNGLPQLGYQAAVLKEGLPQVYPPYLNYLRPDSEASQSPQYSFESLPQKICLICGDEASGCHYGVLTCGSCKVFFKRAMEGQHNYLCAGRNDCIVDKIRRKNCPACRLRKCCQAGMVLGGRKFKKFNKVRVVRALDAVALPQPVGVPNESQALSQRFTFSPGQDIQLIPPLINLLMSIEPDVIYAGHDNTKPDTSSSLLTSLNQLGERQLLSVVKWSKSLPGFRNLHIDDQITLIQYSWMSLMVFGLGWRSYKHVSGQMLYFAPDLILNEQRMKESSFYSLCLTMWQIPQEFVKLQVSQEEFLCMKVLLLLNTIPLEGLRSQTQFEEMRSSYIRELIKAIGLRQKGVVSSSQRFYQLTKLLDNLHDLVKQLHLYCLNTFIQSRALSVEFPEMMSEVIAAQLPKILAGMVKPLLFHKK
As to the kind of experiment: Transient transfection luciferase reporter, PR transactivation in COS-7 cells. On the procedure:
(§1) All cell lines were cultured under the recommended conditions. COS-7 cells grown in […] in DMEM without phenol red, supplemented with 10% FBS were transfected in medium without serum with lipofectamine 2000 (Invitrogen, Burlington, Ont.) with 100 ng of nuclear receptor expression vectors as indicated, 200 ng of TIF-2 or TIF-2.1, as indicated, 250 ng of reporter plasmid, 250 ng of infemal control vector pCMV-βgal, and various concentrations of LCoR/pSG5 or LCoR-LSKAA/pSG5 expression vectors and pSG5 carrier. Medium was replaced 24 h after transfection by a medium containing charcoal-stripped serum and ligand (100 nM) and TSA (3 μM) for 18 h, as indicated. Cells were harvested in 200 […] of reporter lysis buffer (Promega).
(§2) COS-7 cells were cotransfected with expression vectors for ERα HEG0 (A and C) or GR (D) or PR (F) or VDR (H), ERE3-TATA-pXP2 (A and C), GRE5/pXP2 (D and F) or VDRE3tk/pXP2 (H) luciferase reporter vectors, pCMV-β-gal as internal control, and LCoR/pSG5 or LSKAA/pSG5 expression vectors as indicated. Cells were treated with 10^−7M of hormones (solid bars) or vehicle (open bars). Normalized luciferase activities (RLU) are the means±SEM from at least 3 experiments. […] Cells were transfected as in FIG. 5A with LCoR, TIF-2 or TIF2.1 as indicated. […]
(In general: In a reporter assay the amount or activity of a reporter protein is the signal.)

In the next test the target is T2, GR (Homo sapiens, UniProt P04150).
T2 construct: expressed in transfected cells; host or cells: COS-7
T2 sequence (P04150 1-777): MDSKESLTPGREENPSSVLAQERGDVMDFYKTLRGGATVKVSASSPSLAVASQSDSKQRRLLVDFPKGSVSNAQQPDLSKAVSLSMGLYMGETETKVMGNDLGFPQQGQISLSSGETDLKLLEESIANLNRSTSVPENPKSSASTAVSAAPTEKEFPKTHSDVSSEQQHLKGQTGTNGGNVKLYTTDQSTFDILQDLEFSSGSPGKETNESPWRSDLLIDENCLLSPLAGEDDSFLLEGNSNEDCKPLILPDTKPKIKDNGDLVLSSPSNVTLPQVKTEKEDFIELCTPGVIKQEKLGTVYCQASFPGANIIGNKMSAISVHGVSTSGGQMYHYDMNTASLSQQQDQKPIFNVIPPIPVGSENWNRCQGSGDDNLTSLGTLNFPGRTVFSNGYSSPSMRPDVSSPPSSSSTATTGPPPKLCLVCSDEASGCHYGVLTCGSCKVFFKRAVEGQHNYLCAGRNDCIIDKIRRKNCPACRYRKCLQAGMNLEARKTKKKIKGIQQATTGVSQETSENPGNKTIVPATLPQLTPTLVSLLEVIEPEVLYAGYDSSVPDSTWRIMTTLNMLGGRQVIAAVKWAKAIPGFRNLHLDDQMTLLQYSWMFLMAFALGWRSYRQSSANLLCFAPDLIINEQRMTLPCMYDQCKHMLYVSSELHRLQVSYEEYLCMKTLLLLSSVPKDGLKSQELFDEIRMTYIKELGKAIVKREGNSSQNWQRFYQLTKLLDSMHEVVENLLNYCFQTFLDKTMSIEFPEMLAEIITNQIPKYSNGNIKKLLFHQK
In words: Transient transfection luciferase reporter, GR transactivation in COS-7 cells. On the procedure:
as §1, §2

Another test has as its target T3, VDR (Homo sapiens, UniProt P11473).
T3 construct: expressed in transfected cells; host or cells: COS-7
T3 sequence (P11473 1-427): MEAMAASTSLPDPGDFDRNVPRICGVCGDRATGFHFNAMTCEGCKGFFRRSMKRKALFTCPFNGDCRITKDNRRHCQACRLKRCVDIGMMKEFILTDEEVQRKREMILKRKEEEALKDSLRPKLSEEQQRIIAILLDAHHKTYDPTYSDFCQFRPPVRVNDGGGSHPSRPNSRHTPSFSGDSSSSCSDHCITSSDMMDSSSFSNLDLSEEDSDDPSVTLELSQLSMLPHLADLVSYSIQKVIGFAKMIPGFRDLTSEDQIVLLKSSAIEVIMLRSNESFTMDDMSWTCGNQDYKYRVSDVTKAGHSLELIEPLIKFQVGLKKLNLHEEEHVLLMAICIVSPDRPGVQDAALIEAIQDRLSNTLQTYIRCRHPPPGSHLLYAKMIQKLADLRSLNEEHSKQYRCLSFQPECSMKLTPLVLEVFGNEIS
In words: Transient transfection luciferase reporter, VDR transactivation in COS-7 cells. On the procedure: as §1, §2

With `CC(/C=C/C(=O)NO)=C\[C@@H](C)C(=O)c1ccc(N(C)C)cc1` [TSA, trichostatin A], the “effect on LCoR repression of PR function” value on PR was “little or no effect”. The “effect on LCoR-dependent repression of GR function” value on GR is given as “completely abolished”. In addition, the “effect on LCoR repression of VDR function” value at VDR is listed as “little or no effect”.
